From ChEMBL document CHEMBL1201862, “PubChem BioAssay data set” (2004)
Active and inactive are the calls of the source.

Columns and labels:
[1] = molecular target: T1, Lysosomal acid glucosylceramidase (Homo sapiens, UniProt P04062); experiment: Dose response cell-based high throughput screening assay to identify enhancers of beta-glucosidase activity. [Related pubchem assays: 784 ]; type: functional
T1 sequence (P04062 whole entry): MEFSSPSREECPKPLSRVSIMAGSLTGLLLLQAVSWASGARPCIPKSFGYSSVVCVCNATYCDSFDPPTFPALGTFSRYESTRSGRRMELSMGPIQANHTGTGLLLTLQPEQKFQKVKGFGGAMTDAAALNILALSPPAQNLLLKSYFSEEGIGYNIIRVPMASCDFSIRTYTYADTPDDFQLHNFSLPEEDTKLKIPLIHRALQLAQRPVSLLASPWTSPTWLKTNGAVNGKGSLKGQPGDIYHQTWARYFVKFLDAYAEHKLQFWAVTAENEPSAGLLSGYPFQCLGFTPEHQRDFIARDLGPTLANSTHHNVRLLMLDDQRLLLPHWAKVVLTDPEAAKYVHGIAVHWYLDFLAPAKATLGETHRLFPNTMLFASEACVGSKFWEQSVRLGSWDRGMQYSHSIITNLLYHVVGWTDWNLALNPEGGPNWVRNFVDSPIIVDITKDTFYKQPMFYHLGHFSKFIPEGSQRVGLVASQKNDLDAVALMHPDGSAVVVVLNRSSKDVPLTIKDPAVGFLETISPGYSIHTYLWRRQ

[2] = molecular target: T2, Scavenger receptor class B member 1 (Mus musculus, UniProt Q61009); experiment: inhibitors of SR-BI mediated HDL lipid uptake, dose response, ldlA[mSR-BI] cells, fluorescence, cherry pick (AID 493194); type: functional, cell-based;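 also: cellular uptake of fluorescent DiI-labeled HDL measured as cell fluorescence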
T2 sequence (Q61009 whole entry): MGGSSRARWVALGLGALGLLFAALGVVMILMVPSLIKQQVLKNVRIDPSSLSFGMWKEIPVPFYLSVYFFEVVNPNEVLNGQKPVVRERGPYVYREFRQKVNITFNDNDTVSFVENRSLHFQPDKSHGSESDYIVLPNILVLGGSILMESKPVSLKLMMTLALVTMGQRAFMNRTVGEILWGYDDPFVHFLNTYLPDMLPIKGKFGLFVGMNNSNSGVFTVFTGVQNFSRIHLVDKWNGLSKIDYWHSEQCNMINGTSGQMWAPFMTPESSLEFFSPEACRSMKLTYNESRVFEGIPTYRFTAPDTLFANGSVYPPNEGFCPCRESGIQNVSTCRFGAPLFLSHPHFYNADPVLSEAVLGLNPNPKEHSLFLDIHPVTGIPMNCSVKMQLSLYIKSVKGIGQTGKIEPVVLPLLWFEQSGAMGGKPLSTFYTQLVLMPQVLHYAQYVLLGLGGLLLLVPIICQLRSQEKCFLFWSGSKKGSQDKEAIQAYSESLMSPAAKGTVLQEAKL

[3] = inhibitors of firefly luciferase expression or activity, dose response, H4 neuroglioma cells, luminescence (AID 1990); type: functional, cell-based
[4] = Luminescence Cell-Based Dose Response HTS to Identify Inhibitors of 5'UTR Stem-Loop Driven Prion Protein mRNA Translation in H4 Neuroglioblastoma Cells. [Related pubchem assays: 1827 (Project Summary), 1813 (Primary HTS)]; type: functional
[5] = inhibitors of SNCA 5'UTR-driven reporter translation, confirmation, H4 neuroglioma cells, luminescence (AID 1988); type: functional, cell-based
[6] = molecular target: G-protein coupled receptor 55 (Homo sapiens, UniProt Q9Y2T6); experiment: GPR55 antagonists blocking LPI-driven arrestin recruitment, primary screen, imaging, U2OS, beta-arrestin-GFP, LPI agonist (AID 2013); type: functional;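 also: antagonist potency measured as reduced agonist-driven arrestin aggregation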
HEK293 [7] = experiment: NOD1 signaling inhibitors, primary screen, cell-based, luminescence, uHTS (AID 1578); type: functional; settings: Homo sapiens
HEK293 [8] = experiment: cells; type: functional, cell-based; settings: Homo sapiens
HEK293 [9] = experiment: cells; type: functional, cell-based; settings: Homo sapiens; remark: listed apart in the source
HEK293 [10] = experiment: NOD2 signaling inhibitors in MDP-stimulated cells, cell-based, uHTS, luminescence (AID 2001); type: functional; settings: Homo sapiens
Tumor necrosis factor = Tumor necrosis factor (Homo sapiens, UniProt P01375); experiment: TNFa-triggered NF-kB activation inhibitors, SAR follow-up, cell-based, revised (AID 2337); type: functional
[11] = molecular target: T3, Nucleotide-binding oligomerization domain-containing protein 1 (Homo sapiens, UniProt Q9Y239); experiment: NOD1 signaling inhibitors, SAR follow-up, revised (AID 2333); type: functional
T3 sequence (Q9Y239 whole entry): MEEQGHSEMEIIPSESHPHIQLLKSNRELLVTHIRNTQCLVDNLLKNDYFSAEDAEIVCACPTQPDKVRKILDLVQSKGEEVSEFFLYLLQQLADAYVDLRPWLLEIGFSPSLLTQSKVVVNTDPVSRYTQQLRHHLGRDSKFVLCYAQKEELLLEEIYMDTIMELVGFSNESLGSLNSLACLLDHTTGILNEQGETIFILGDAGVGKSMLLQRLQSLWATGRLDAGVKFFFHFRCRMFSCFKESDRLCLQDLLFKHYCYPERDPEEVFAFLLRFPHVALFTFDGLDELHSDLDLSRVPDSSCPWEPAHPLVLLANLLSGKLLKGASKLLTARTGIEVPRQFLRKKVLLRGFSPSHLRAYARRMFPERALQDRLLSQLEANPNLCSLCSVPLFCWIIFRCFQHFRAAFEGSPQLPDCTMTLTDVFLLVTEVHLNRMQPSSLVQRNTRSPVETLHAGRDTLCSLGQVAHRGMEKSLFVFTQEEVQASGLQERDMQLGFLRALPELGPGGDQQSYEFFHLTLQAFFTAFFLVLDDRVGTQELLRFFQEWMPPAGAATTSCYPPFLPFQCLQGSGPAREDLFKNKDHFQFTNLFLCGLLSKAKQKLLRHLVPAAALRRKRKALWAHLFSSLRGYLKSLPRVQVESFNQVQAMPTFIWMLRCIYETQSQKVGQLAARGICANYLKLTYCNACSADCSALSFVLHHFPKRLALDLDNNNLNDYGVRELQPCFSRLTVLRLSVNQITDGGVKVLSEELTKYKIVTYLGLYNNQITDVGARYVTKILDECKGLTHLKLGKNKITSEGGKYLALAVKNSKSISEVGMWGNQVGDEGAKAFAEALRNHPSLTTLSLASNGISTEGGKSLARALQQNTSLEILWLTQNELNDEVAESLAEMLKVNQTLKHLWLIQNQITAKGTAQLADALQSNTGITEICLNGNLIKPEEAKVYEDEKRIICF

[12] = molecular target: Nucleotide-binding oligomerization domain-containing protein 2 (Homo sapiens, UniProt Q9HC29); experiment: PubChem AID 2334; type: functional
HEK293 [13] = experiment: cells; settings: Homo sapiens
[14] = molecular target: Dual specificity protein phosphatase 3 (Homo sapiens, UniProt P51452); experiment: VHR1 inhibitor Ki determination, SAR follow-up, biochemical, colorimetric (AID 2004)
[15] = molecular target: Eukaryotic translation initiation factor 4H (Homo sapiens, UniProt Q15056); experiment: eIF4H inhibition in translation initiation, SAR follow-up (AID 435011); type: functional
[16] = molecular target: Polyadenylate-binding protein 1 (Homo sapiens, UniProt P11940); experiment: PABP inhibition in translation initiation, SAR follow-up (AID 435018); type: functional
[17] = test system: Streptococcus sp. 'group A'; experiment: growth inhibition of control SK(-) GAS strain, dose response, counter-screen for streptokinase expression inhibitor project, luminescence, kanamycin, BacTiterGlo, confirmation (AID 1900); type: functional, organism-based
Beta-galactosidase [18] = molecular target: T4, Beta-galactosidase (Escherichia coli, UniProt Q8VNN2); experiment: PubChem AID 485352; type: functional
Streptokinase A = molecular target: T5, Streptokinase A (Streptococcus pyogenes serotype M1, UniProt P10520); experiment: S. pyogenes streptokinase expression inhibitors, potency, dose response, plasminogen activation absorbance, OD405 (AID 1914); type: functional, Streptococcus pyogenes M1 GAS;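 also: secreted streptokinase activity via plasminogen activation per viability signal from cell pellet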
T5 sequence (P10520 whole entry): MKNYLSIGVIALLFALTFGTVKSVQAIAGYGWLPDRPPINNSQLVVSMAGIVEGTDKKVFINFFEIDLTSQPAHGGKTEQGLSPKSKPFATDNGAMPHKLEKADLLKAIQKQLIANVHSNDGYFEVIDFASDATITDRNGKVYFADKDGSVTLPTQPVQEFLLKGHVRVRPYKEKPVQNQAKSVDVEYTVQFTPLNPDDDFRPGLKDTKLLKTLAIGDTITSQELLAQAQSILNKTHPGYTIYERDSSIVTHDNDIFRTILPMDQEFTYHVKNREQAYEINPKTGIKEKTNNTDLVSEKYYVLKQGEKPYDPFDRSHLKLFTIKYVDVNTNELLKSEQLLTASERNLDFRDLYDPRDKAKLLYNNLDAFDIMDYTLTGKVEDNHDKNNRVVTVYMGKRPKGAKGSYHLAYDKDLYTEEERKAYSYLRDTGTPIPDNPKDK

Estrogen receptor = molecular target: T6, Estrogen receptor (Homo sapiens, UniProt P03372);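 also: potency for inhibiting coactivator peptide recruitment to the receptor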
T6 sequence (P03372 whole entry): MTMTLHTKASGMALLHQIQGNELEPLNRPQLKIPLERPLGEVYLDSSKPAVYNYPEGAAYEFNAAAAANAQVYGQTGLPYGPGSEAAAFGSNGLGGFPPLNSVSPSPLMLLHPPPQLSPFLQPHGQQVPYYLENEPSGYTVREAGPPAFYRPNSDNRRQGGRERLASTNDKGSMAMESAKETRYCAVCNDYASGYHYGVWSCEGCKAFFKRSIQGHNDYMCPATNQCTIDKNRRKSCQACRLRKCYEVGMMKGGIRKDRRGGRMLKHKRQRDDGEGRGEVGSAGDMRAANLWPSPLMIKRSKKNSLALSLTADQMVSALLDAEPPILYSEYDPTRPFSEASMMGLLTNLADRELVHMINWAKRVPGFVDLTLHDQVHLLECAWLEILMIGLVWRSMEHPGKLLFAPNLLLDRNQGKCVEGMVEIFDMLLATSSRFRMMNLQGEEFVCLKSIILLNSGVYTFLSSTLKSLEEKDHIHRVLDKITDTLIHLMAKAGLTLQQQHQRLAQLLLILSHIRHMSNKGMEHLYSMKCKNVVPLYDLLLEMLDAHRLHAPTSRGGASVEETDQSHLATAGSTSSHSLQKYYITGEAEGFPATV

[19] = inhibitors of intracellular T. cruzi replication, confirmation, NIH3T3 host cells, beta-gal luminescence (AID 2044); type: functional, cell-based;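 also: intracellular parasites grown in NIH/3T3 mouse fibroblasts as host cells; luminescent beta-galactosidase reporter signal from transgenic T. cruzi replicating inside host cells; inhibitors lower the luminescence signal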
[20] = molecular target: T7, Type-1 angiotensin II receptor (Homo sapiens, UniProt P30556); experiment: AT1 receptor antagonists, dose response, selectivity assay for APJ receptor antagonist project, cell-based, uHTS hits (AID 463214); type: functional;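 also: antagonist potency against angiotensin II stimulated AT1 response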
T7 sequence (P30556 whole entry): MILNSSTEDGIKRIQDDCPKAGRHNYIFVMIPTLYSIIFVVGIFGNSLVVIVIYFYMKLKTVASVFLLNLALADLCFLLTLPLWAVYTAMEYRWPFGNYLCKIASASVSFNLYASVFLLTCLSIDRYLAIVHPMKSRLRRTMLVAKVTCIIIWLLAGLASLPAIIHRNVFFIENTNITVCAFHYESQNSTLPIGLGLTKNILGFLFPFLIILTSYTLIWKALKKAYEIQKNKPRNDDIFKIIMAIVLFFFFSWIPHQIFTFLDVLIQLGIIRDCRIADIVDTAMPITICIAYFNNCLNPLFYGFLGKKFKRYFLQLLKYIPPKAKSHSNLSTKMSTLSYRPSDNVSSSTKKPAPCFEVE

[21] = molecular target: T8, Kappa-type opioid receptor (Homo sapiens, UniProt P41145); type: functional
[22] = cytotoxicity toward NIH3T3 fibroblasts, dose response, counter-screen, cell-based, ATP luminescence, mouse fibroblasts (AID 2010); type: functional;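 also: cells exposed to compound for about 90 hours before reading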
Beta-galactosidase [23] = molecular target: T4, Beta-galactosidase; type: functional
[24] = molecular target: T8, Kappa-type opioid receptor; type: functional; remark: listed apart in the source
Streptococcus = experiment: Group A Streptococcus viability loss, dose response, counter-screen for streptokinase expression inhibitor project, luminescence, BacTiterGlo (AID 1915); type: functional, organism-based;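 also: potency for reduction of bacterial viability or growth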

Dual specificity protein phosphatase 3, sequence (P51452 whole entry): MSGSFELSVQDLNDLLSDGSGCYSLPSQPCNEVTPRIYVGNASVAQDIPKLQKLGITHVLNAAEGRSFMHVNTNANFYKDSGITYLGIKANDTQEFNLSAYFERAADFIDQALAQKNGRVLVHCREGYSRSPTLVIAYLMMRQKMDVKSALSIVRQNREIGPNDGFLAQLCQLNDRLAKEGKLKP
T4 sequence (Q8VNN2 whole entry): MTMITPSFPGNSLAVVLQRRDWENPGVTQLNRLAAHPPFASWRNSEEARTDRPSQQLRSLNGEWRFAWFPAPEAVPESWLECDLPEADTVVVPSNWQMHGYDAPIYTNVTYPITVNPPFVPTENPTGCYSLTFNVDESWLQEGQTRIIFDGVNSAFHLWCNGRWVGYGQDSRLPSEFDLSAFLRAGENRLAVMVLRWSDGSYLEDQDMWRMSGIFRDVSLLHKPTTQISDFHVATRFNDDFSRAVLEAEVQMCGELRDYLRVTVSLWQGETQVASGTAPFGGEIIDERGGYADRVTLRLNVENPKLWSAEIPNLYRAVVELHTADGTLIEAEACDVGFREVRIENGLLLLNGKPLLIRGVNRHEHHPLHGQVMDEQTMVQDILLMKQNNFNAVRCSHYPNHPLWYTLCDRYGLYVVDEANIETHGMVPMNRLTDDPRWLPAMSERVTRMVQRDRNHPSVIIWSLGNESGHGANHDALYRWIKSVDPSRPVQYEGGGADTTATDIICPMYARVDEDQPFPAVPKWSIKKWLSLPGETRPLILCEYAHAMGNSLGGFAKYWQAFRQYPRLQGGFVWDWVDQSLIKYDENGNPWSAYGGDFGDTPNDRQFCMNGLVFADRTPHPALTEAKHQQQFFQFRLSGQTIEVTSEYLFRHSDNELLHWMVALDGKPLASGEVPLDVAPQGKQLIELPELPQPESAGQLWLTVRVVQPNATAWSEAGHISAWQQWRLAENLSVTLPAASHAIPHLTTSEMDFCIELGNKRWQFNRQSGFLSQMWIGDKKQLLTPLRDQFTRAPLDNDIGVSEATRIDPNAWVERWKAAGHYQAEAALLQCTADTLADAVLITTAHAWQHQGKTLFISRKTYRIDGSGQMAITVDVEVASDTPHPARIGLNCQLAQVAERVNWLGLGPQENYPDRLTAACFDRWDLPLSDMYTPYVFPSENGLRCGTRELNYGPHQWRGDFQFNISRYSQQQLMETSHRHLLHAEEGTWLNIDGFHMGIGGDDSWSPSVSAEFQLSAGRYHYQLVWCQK
Nucleotide-binding oligomerization domain-containing protein 2, sequence (Q9HC29 whole entry, the tested form may be a part): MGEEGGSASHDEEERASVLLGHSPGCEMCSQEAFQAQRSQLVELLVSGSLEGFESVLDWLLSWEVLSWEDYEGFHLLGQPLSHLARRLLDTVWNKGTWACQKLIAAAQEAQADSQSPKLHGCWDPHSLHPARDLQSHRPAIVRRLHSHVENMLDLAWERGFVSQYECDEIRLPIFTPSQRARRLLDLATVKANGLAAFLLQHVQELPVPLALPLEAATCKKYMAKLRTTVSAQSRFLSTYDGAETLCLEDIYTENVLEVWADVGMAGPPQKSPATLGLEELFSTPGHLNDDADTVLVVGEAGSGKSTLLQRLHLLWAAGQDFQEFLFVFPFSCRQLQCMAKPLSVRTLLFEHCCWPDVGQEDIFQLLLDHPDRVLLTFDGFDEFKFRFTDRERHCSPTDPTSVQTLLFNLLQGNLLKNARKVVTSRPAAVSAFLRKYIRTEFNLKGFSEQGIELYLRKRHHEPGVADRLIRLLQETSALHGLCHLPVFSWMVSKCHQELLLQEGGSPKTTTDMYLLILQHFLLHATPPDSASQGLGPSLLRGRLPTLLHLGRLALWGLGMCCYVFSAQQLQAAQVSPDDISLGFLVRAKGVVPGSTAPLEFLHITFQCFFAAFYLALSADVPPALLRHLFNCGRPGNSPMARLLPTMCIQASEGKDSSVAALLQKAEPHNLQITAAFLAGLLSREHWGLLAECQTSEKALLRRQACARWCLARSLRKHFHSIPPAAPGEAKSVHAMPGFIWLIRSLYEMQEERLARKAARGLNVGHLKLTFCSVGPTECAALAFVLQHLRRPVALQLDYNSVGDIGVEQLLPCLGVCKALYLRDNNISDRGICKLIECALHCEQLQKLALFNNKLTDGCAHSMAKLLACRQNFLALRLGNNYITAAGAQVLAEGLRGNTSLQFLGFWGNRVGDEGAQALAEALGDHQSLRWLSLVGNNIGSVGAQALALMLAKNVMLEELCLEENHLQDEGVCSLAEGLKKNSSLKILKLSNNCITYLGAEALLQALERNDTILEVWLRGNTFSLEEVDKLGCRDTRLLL
Tumor necrosis factor, sequence (P01375 whole entry, the tested form may be a part): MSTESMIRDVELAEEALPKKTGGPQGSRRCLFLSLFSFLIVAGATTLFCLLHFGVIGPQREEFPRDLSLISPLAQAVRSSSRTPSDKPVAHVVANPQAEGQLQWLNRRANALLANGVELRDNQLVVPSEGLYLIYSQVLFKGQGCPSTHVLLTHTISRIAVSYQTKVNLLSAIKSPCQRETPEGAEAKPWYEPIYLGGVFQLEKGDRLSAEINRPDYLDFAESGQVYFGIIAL
T8 sequence (P41145 whole entry): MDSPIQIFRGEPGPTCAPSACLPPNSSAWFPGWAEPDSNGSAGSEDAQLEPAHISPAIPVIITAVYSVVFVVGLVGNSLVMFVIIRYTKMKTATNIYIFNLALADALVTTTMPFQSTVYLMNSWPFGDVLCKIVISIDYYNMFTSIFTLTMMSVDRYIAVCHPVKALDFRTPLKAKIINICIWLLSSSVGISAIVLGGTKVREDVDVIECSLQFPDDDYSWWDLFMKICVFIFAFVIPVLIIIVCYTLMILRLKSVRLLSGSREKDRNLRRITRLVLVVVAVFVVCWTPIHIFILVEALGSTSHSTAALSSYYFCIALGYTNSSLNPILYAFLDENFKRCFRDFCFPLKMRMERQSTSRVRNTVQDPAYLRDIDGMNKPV
G-protein coupled receptor 55, sequence (Q9Y2T6 whole entry): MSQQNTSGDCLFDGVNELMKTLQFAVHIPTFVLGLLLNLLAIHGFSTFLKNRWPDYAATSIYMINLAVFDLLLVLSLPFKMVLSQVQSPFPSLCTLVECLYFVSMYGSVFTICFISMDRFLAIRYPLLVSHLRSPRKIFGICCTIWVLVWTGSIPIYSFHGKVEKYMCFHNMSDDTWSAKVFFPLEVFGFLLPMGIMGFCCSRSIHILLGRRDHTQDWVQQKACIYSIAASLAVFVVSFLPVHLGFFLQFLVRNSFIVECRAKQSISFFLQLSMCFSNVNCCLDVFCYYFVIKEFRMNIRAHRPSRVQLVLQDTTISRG
Polyadenylate-binding protein 1, sequence (P11940 whole entry): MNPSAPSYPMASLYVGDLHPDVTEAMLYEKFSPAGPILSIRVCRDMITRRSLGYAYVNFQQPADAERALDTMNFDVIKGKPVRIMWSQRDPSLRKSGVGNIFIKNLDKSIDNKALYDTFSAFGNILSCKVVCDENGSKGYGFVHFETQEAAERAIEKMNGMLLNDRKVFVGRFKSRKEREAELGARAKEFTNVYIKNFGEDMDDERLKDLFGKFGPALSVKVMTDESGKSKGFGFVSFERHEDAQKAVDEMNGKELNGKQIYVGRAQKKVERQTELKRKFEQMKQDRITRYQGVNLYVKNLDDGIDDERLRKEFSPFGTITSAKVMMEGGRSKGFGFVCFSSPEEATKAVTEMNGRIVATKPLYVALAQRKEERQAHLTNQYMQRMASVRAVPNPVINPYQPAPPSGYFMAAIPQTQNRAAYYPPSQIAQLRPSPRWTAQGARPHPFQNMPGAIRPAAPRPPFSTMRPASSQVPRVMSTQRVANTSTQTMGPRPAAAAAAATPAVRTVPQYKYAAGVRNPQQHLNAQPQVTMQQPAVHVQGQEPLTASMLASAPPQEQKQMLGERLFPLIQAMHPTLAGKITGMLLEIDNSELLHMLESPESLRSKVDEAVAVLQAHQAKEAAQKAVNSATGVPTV

CCN1CCN(C(c2ccc(OC)c(OC)c2)c2nnnn2C(C)(C)C)CC1 (stereo unspecified)
EC50 [1]: > 50 µM (not active)

CCc1cc2cc3c(cc2nc1SCC(=O)OC(C)C)OCO3
AC50 [2]: 0.366 µM (active)

COc1ccc(C2c3ccc(O)cc3Oc3ncn4nc(-c5cccnc5)nc4c32)cc1OC (stereo unspecified)
EC50 [3]: > 120 µM (not active)
EC50 [4]: 52.3 µM (active)
EC50 [5]: > 120 µM (not active)
IC50 [6]: 1.99 µM (active)

CCCCn1c(SCC(=O)Nc2nnc(C(C)C)s2)nc2c1c(=O)n(C)c(=O)n2C
EC50 (HEK293 [7]): 7.02 µM (active)
IC50 (HEK293 [8]): > 20 µM (inactive)
IC50 (HEK293 [9]): > 20 µM (inactive)
IC50 (HEK293 [10]): 9.58 µM (active)
IC50 (Tumor necrosis factor): 5.82 µM (active)
IC50 [11]: 5.79 µM (active)
IC50 [12]: 6.89 µM (active)
IC50 (HEK293 [13]): > 20 µM (inactive)

COc1cc2c(C(=O)NCCCN3CCN(c4cccc(Cl)c4)CC3)cn(C)c(=O)c2cc1OC
EC50 [1]: > 50 µM (not active)

CCN1C(=O)/C(=C/c2ccoc2)C(=O)NC1=S
Ki [14]: 56.7 µM (inactive)

CCOc1ccccc1Nc1nc(-c2sc(NC(=O)c3cccc(Cl)c3)nc2C)cs1
AC50 [2]: 5.75 µM (active)

COc1ccc(OC)c(CCNC(=O)c2ccc3c(c2)N(Cc2ccc(F)cc2)CCS3)c1
AC50 [2]: 1.7 µM (active)

CCOc1cc(/C=C2/N=C(c3ccc(NC(C)=O)cc3)OC2=O)ccc1OCc1ccccc1
Ki [14]: 22.9 µM (inactive)

COc1ccc(C(=O)Nc2cccc3ncccc23)cc1
IC50 [15]: > 100 µM (inactive)
IC50 [16]: > 100 µM (inactive)

Nc1nc2ccccc2n1Cc1ccccc1Cl
IC50 (Tumor necrosis factor): 12.5 µM (active)
IC50 [11]: 12.9 µM (active)
IC50 [12]: 15.3 µM (active)
IC50 (HEK293 [13]): > 20 µM (inactive)

Oc1c(/C=N/c2cccc3cccnc23)sc2ccccc12
EC50 [17]: 7.7 µM (active)
EC50 (Beta-galactosidase [18]): > 40 µM (inactive)
EC50 (Streptokinase A): > 150 µM (not active)
IC50 (Estrogen receptor): 5.15 µM (active)
EC50 [19]: 2.58 µM (active)
IC50 [20]: 2.78 µM (active)
IC50 [21]: 4.86 µM (active)
EC50 [22]: > 60 µM (not active)
EC50 (Beta-galactosidase [23]): > 31.5 µM (inactive)
IC50 [24]: 1.12 µM
EC50 (Streptococcus): 9.99 µM (active)
